Measurements published in publication PMC10786919, “Design-rules for stapled peptides with in vivo activity and their application to Mdm2/X antagonists” (Nature Communications, 2024).
Converted amounts (≈) assume the structure as drawn. Like-named read-outs stand apart in the source and are kept apart here. Positions of bridges follow the written chain, without caps; N, C: chain ends. Non-standard residues stand in square brackets, D forms with d. Residues, ends and D or L forms follow the SMILES beside them. Lys(N3) = [N-]=[N+]=NCCCC[C@H](N)C(=O)O; R8 = C=CCCCCCC[C@@](C)(N)C(=O)O; Cba = N[C@@H](CC1CCC1)C(=O)O; S5 = C=CCCC[C@](C)(N)C(=O)O; Ahx = NCCCCCC(=O)O; βAla = NCCC(=O)O

Tests used:
[1] = Solubility assay (kinetic solubility, PBS pH 7); format: physicochemical
Summary of the method: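 Quantitation uses an external standard at 100 µM, prepared from 10 mM stock in acetonitrile:methanol:DMSO (10:80:10). Solubility (µM) = (peak area of sample ÷ peak area of standard) × standard concentration.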

[2] = tested on: cells transiently transfected with the NanoLuc-HaloTag vector; assay: in vitro; details: for cell entry EC50: 4 h; for Nanoclick permeability assay % Effect: 4Hr
Summary of the method: (§1)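 Azido-peptide permeability was read as loss of NanoBRET signal (donor 450 nm, acceptor 610 nm) after adding NanoBret618-azide at 10 μM final.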

Ca Ski cell line = tested on: Ca Ski cell line
Summary of the method: (§2)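 Compound dilution series (10 points, 3-fold, 10 mM top stock in DMSO) tested on overnight-plated Ca Ski cells in RPMI1640/10% FBS and on blasticidin-selected p53RE-bla HCT-116 cells in McCoy's 5A; read-out was CellTiter-Glo 2.0 luminescence after room-temperature equilibration.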

[3] = tested on: CellSensor p53RE-bla HCT-116 Cell Line
Summary of the method: as §2

[4] = tested on: p53 responsive β-lactamase reporter in HCT116 cells; assay: cells; format: cell-based
Summary of the method: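 HCT116 cells stably carrying a p53-responsive β-lactamase reporter, seeded at 8000 cells/well, with 0.5% DMSO final. Reporter activity read by ToxBLAzer Dual Screen. Values are geometric means of at least three biological replicates.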

[5] = Lactate dehydrogenase (LDH) release assay; format: cell-based
Summary of the method: (§3)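 Membrane damage measured as lactate dehydrogenase release (CytoTox-ONE kit) from p53-responsive β-lactamase reporter HCT116 cells plated at 8000 per well. Final DMSO 0.5%; geometric mean reported from a minimum of three biological replicates.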

[6] = tested on: Jump-In T-REx CHO-K1 BLA cells; assay: cells; format: cell-based; details: for EC50: read-out: TETCHO: Counterscreen EC50
in vitro = assay: in vitro
Summary of the method: as §1

[7] = Experimental LogD (partition coefficient); details: not stated, Partition Coeff LogD
HCT116 cells = assay: Lactate dehydrogenase (LDH) release assay; format: cell-based
Summary of the method: as §3

[8] = 0% FBS 4Hr, read-out: p53 reporter assay EC50
[9] = pH 7, aqueous buffer, kinetic from dmso stock, pH 7, PBS, read-out: Solubility
[10] = Nanoclick permeability assay EC50
[11] = read-out: Cell EC50 (16 hr, 10% FBS), p53 reporter assay, 16 hr, 10% FBS
[12] = 0% FBS 4Hr, read-out: LDH: Cytotoxicity assay EC50
[13] = 10% FBS 16Hr, read-out: LDH: Cytotoxicity assay EC50

SMILES | cell entry EC50 [2] | EC50 [4, 8] | TETCHO: Counterscreen % Effect ([6]; 0% FBS 4Hr) | EC50 ([6]; 0% FBS 4Hr) | solubility kinetic [1, 9] | Nanoclick permeability assay % Effect [2] | logD [7] | p53 reporter assay % Effect ([4]; 0% FBS 4Hr) | p53 reporter assay % Effect ([4]; 10% FBS 16Hr) | LDH: Cytotoxicity assay % Effect (HCT116 cells; 0% FBS 4Hr) | LDH: Cytotoxicity assay % Effect (HCT116 cells; 10% FBS 16Hr) | TETCHO: Counterscreen % Effect ([6]; 10% FBS 16Hr) | further results
CC(=O)N[C@@H](CCCCN=[N+]=[N-])C(=O)NCCC(=O)N[C@@H](CC(C)C)C(=O)N[C@H](C(=O)N[C@@H](Cc1ccccc1)C(=O)N[C@]1(C)CCCCCCC=CCCC[C@@](C)(C(=O)N[C@@H](CCO)C(=O)N[C@@H](CCO)C(=O)N[C@@H](Cc2ccccc2)C(=O)N[C@@H](CCO)C(=O)N[C@@H](CCO)C(=O)N[C@@H](Cc2ccccc2)C(N)=O)NC(=O)[C@H](CC2CCC2)NC(=O)[C@H](CCC(N)=O)NC(=O)[C@H](C)NC(=O)[C@H](Cc2c[nH]c3ccccc23)NC(=O)[C@H](Cc2ccc(O)cc2)NC(=O)[C@H](CCC(=O)O)NC1=O)[C@@H](C)O [MP-803] | 6860 nM | – | – | – | – | – | – | – | – | – | – | – | solubility kinetic ([1]; pH 7, Solubility): 1 µM (≈ 2.44 µg/mL)
CC(=O)N[C@@H](CCCCN=[N+]=[N-])C(=O)NCCC(=O)N[C@@H](CC(C)C)C(=O)N[C@H](C(=O)N[C@@H](Cc1ccccc1)C(=O)N[C@]1(C)CCCCCCC=CCCC[C@@](C)(C(=O)N[C@@H](C)C(=O)N[C@@H](C)C(=O)N[C@@H](C)C(=O)N[C@@H](C)C(=O)N[C@@H](C)C(=O)N[C@@H](C)C(=O)N[C@@H](C)C(N)=O)NC(=O)[C@H](CC2CCC2)NC(=O)[C@H](CCC(N)=O)NC(=O)[C@H](C)NC(=O)[C@H](Cc2c[nH]c3ccccc23)NC(=O)[C@H](Cc2ccc(O)cc2)NC(=O)[C@H](CCC(=O)O)NC1=O)[C@@H](C)O [MP-471] | 1350 nM | – | – | – | – | – | – | – | – | – | – | – | EC50 (Ca Ski cell line; 72 h): 26.7 µM; EC50 ([3]; 72 h): 10700 nM
CC(=O)N[C@@H](CCC(=O)O)C(=O)N[C@@H](CCC(=O)O)C(=O)N[C@@H](CCC(=O)O)C(=O)N[C@@H](CCCCN=[N+]=[N-])C(=O)NCCCCCC(=O)N[C@H](C(=O)N[C@@H](CO)C(=O)N[C@@H](Cc1ccccc1)C(=O)N[C@]1(C)CCCCCCC=CCCC[C@@](C)(C(N)=O)NC(=O)[C@H](CC(C)C)NC(=O)[C@H](CC(C)C)NC(=O)[C@H](C)NC(=O)[C@H](Cc2c[nH]c3ccccc23)NC(=O)[C@H](Cc2c[nH]c3ccccc23)NC(=O)[C@H](Cc2ccc(O)cc2)NC(=O)[C@H](CCC(=O)O)NC1=O)[C@@H](C)O [MP-9662] (Ac-EEE[Lys(N3)][Ahx]TSF[R8]EYWWALL[S5]-NH2; staple 9-17) | – | > 50000 nM | 0.684% | > 50.6 µM | 33 µM (≈ 76 µg/mL) | 111.3% | 1.86 | – | – | – | – | – | EC50 ([5]; LDH: Cytotoxicity assay EC50): > 50 µM; TETCHO: Counterscreen % Effect ([6]; 0% FBS 16Hr): 0.2782%; EC50 ([6]; 0% FBS 16Hr): > 50 µM; cell entry EC50 (in vitro; [10]): 637 nM
CC(=O)N[C@@H](CCCCN=[N+]=[N-])C(=O)NCCC(=O)N[C@@H](CC(C)C)C(=O)N[C@H](C(=O)N[C@@H](Cc1ccccc1)C(=O)N[C@]1(C)CCCCCCC=CCCC[C@@](C)(C(=O)N[C@@H](CCC(=O)O)C(=O)N[C@@H](C)C(=O)N[C@@H](C)C(=O)N[C@@H](C)C(=O)N[C@@H](C)C(=O)N[C@H](C)C(N)=O)NC(=O)[C@H](CC2CCC2)NC(=O)[C@H](CCC(N)=O)NC(=O)[C@H](C)NC(=O)[C@H](Cc2c[nH]c3ccccc23)NC(=O)[C@H](Cc2ccc(O)cc2)NC(=O)[C@H](CCC(=O)O)NC1=O)[C@@H](C)O [MP-834, Ac-K(N3)-(betaAla)-LTF-(R8)-EYWAQ-(Cba)-(S5)-EAAAA-(D-Ala)-NH2] (Ac-[Lys(N3)][βAla]LTF[R8]EYWAQ[Cba][S5]EAAAA[dA]-NH2; staple 6-13) | – | – | -4.911% | – | – | 121.4% | – | 103.2% | 95.7% | 6.58% | 9.756% | -13.19% | EC50 ([4]; read-out: Cell EC50 (4 hr, 0% FBS), p53 reporter assay, 4 hr, 0% FBS): 1000 nM; EC50 [4, 11]: 3400 nM; TETCHO: Counterscreen % Effect ([6]; 0% FBS 16Hr): -7.249%; solubility kinetic ([1]; read-out: Solubility): 167 µM (≈ 372 µg/mL); Proliferation % inhibition at 50 µM Ca Ski (Ca Ski cell line; Ca Ski, 50 µM): -3.2%; EC50 (Ca Ski cell line; read-out: Proliferation EC50 Ca Ski (Off-target), Ca Ski): > 49.8 µM; EC50 ([3]; read-out: Proliferation EC50 HCT116 (On-target), HCT116): 1400 nM
CC(=O)N[C@@H](CCCCN=[N+]=[N-])C(=O)NCCC(=O)N[C@@H](CC(C)C)C(=O)N[C@H](C(=O)N[C@@H](CO)C(=O)N[C@]1(C)CCCCCCC=CCCC[C@@](C)(C(=O)N[C@@H](CO)C(=O)N[C@@H](C)C(=O)N[C@@H](C)C(N)=O)NC(=O)[C@H](CO)NC(=O)[C@H](CCC(N)=O)NC(=O)[C@H](C)NC(=O)[C@H](CO)NC(=O)[C@H](Cc2ccc(O)cc2)NC(=O)[C@H](CCC(=O)O)NC1=O)[C@@H](C)O [MP-3352] (Ac-[Lys(N3)][βAla]LTS[R8]EYSAQS[S5]SAA-NH2; staple 6-13) | – | – | 0.41% | > 50.6 µM | 28 µM (≈ 49.6 µg/mL) | 36.66% | 1.55 | – | – | – | – | – | EC50 ([4]; 0% FBS 4Hr, read-out: p53 reporter assay: EC50): > 50600 nM; EC50 ([5]; LDH: Cytotoxicity assay: EC50): > 50.6 µM; LDH: Cytotoxicity assay: % Effect (HCT116 cells): -2.39%; cell entry EC50 (in vitro; [10]): 8800 nM; EPSA (physchem): 197 A^2
CC(=O)N[C@@H](CCCCN=[N+]=[N-])C(=O)NCCC(=O)N[C@@H](CC(C)C)C(=O)N[C@H](C(=O)N[C@@H](Cc1ccccc1)C(=O)N[C@]1(C)CCCCCCC=CCCC[C@@](C)(C(=O)N[C@@H](C)C(=O)N[C@@H](CCC(=O)O)C(=O)N[C@@H](C)C(=O)N[C@@H](C)C(=O)N[C@@H](C)C(=O)N[C@H](C)C(N)=O)NC(=O)[C@H](CC2CCC2)NC(=O)[C@H](CCC(N)=O)NC(=O)[C@H](C)NC(=O)[C@H](Cc2c[nH]c3ccccc23)NC(=O)[C@H](Cc2ccc(O)cc2)NC(=O)[C@H](CCC(=O)O)NC1=O)[C@@H](C)O [MP-965, AZIDE-ATSP-7041 (E5A,S12A)] (Ac-[Lys(N3)][βAla]LTF[R8]EYWAQ[Cba][S5]AEAAA[dA]-NH2; staple 6-13) | – | 1110 nM | -2.385% | > 50.4 µM | 161 µM (≈ 358 µg/mL) | 110.3% | 2.69 | 97.76% | 86.7% | -4.408% | 5.517% | -17.5% | EC50 [4, 11]: 2200 nM; EC50 [5, 12]: > 50.7 µM; EC50 [5, 13]: > 50.7 µM; EC50 ([6]; 10% FBS 16Hr): > 50.4 µM; cell entry EC50 (in vitro): 581 nM
CC(=O)N[C@@H](CCCCN=[N+]=[N-])C(=O)NCCC(=O)N[C@@H](CC(C)C)C(=O)N[C@H](C(=O)N[C@@H](Cc1ccccc1)C(=O)N[C@]1(C)CCCCCCC=CCCC[C@@](C)(C(=O)N[C@@H](C)C(=O)N[C@@H](CC(N)=O)C(=O)N[C@@H](C)C(=O)N[C@@H](C)C(=O)N[C@@H](C)C(=O)N[C@H](C)C(N)=O)NC(=O)[C@H](CC2CCC2)NC(=O)[C@H](CCC(N)=O)NC(=O)[C@H](C)NC(=O)[C@H](Cc2c[nH]c3ccccc23)NC(=O)[C@H](Cc2ccc(O)cc2)NC(=O)[C@H](CCC(=O)O)NC1=O)[C@@H](C)O [MP-967, AZIDE-KK-ATSP-7041 (L1A,T2A,E5A,Q9A,S12A)] (Ac-[Lys(N3)][βAla]LTF[R8]EYWAQ[Cba][S5]ANAAA[dA]-NH2; staple 6-13) | – | 524 nM | -0.6324% | > 50.4 µM | 161 µM (≈ 356 µg/mL) | 137.2% | 3.08 | 98.42% | 97.47% | 5.243% | 11.93% | -28.5% | EC50 ([4]; 10% FBS 16Hr, read-out: p53 reporter assay EC50): 937 nM; EC50 [5, 12]: > 50.7 µM; EC50 [5, 13]: > 50.7 µM; EC50 ([6]; 10% FBS 16Hr): > 50.4 µM; cell entry EC50 (in vitro): 3890 nM
CC(=O)N[C@@H](CCCCN=[N+]=[N-])C(=O)NCCC(=O)N[C@@H](CC(C)C)C(=O)N[C@H](C(=O)N[C@@H](Cc1ccccc1)C(=O)N[C@]1(C)CCCCCCC=CCCC[C@@](C)(C(=O)N2CCC[C@H]2C(=O)N2CCC[C@H]2C(=O)N2CCC[C@H]2C(=O)N2CCC[C@H]2C(=O)N2CCC[C@H]2C(=O)N2CCC[C@H]2C(N)=O)NC(=O)[C@H](CC2CCC2)NC(=O)[C@H](CCC(N)=O)NC(=O)[C@H](C)NC(=O)[C@H](Cc2c[nH]c3ccccc23)NC(=O)[C@H](Cc2ccc(O)cc2)NC(=O)[C@H](CCC(=O)O)NC1=O)[C@@H](C)O [MP-094] | 942 nM | – | – | – | – | – | – | – | – | – | – | – | solubility kinetic ([1]; pH 7, read-out: Solubility): 158 µM (≈ 367 µg/mL); EC50 (Ca Ski cell line; 72 h): > 49.8 µM; EC50 ([3]; 72 h): 1330 nM
